According to patent US20250268884A1, “Deuterated Domperidone for Treating Gastroparesis” (CinDome Pharma, Inc., priority 2022, published 2025):

Tests used:
prolactin = test: Prolactin concentration (pharmacodynamic evaluation), Phase 2a; assay type: in vivo, human; conditions: Safety Population
Excerpt: Table 14 summarizes prolactin concentration and change from baseline by scheduled time point and treatment for the Safety Population.

[1] = system: adults with idiopathic or diabetic gastroparesis; test: 12-lead ECG QTcF safety assessment, Phase 2a; assay type: in vivo, human
Description: Safety was evaluated through assessments of Aes, vital signs, physical examinations, clinical laboratory evaluations (including prolactin), and ECG findings.

[2] = 10 mg dose, healthy subjects
[3] = system: cardiac repolarization (QTcF) in healthy subjects; conditions: human, in vivo
[4] = system: adults with idiopathic or diabetic gastroparesis; conditions: 10 mg BID, Cohort 1, ITT
Excerpt: Gastric emptying may be measured by the gastric emptying breath test (GEBT). The GEBT is known in the art. Succinctly, the GEBT is a nonradioactive stable isotope breath test used in the art to diagnose or monitor gastroparesis. In this test, the ratio of exhaled ^13CO2/^12CO2 is used to determine the rate of gastric emptying after consumption of a standardized, ^13C-enriched meal. In some embodiments, the ^13C-enriched meal is ^13C-Spirulina platensis. In some examples, the test includes consumption of a standardized, ^13C-enriched meal after an 8-hour fast. See, e.g., the Cairn Gastric Emptying Breath Test (GEBT) Administration Guide at https://cairndiagnostics.com/wp-content/uploads/2019/05/Cairn-GEBT-How-To-Guide-updated-07May2019.pdf, which is hereby incorporated by reference. Breath samples are obtained one or more times prior to consumption of the ^13C-enriched meal and then one or more times after meal consumption. The breath samples are then measured using, e.g., a gas isotope ratio mass spectrometer. […]
Subjects were Evaluated as Follows: • Days −28 to −11: Screening procedures were performed. The ANMS GCSI-DD questionnaire was completed daily for at least 14 days prior to randomization (Day 1); • Days −10 to −3: The ANMS GCSI-DD questionnaire was completed daily. A GEBT was performed on a single day within this window, with breath samples obtained twice prior to consumption of a standardized, carbon-13 (^13C)-enriched meal and then at 45, 90, 120, 150, 180, and 240 minutes after meal consumption after an 8-hour fast. […] On Day 14 (±2 days), the PAGI-SYM and Clinical Grading Assessment questionnaires were completed prior to the final dose of study drug. • A GEBT was administered 30 minutes after study drug administration on Day 14 (±2 days). Breath samples were obtained twice prior to ^13C-enriched meal consumption and then at 45, 90, 120, 150, 180, and 240 minutes after meal consumption after an 8-hour fast. […] Clinical Grading Assessment Scales were also performed.
The primary efficacy variable was the change from baseline in gastric emptying as measured by GEBT at Day 14.
The secondary efficacy variables were the following: • The change from baseline in gastric emptying as measured by GEBT T½ at Day 14; • The change from baseline in ANMS GCSI-DD total scores; and • The change from baseline in ANMS GCSI-DD subscale scores.

[2H]c1c([2H])c([2H])c2c([nH]c(=O)n2CCCN2CCC(n3c(=O)[nH]c4cc(Cl)ccc43)CC2)c1[2H] [Deudomperidone, 1-{3-[4-(5-chloro-2-oxo-2,3-dihydro-1H-1,3-benzodiazol-1-yl)piperidin-1yl]propyl}-2,3-dihydro(4,5,6,7-D4)-1H-1,3-benzodiazol-2-one]
Prolactin, Day 3, mean (SD) (prolactin; 5 mg BID): 396.7 (185.83) mIU/L
Prolactin, Day 7, mean (SD) (prolactin; 5 mg BID): 622.9 (317.61) mIU/L
Prolactin, Day 10, mean (SD) (prolactin; 5 mg BID): 449.7 (147.64) mIU/L
Prolactin, Day 14, mean (SD) (prolactin; 5 mg BID): 578.0 (205.82) mIU/L
Prolactin, change from baseline to Day 3, mean (SD) (prolactin; 5 mg BID): 143.4 (124.58) mIU/L
Prolactin, change from baseline to Day 7, mean (SD) (prolactin; 5 mg BID): 369.7 (263.19) mIU/L
Prolactin, change from baseline to Day 10, mean (SD) (prolactin; 5 mg BID): 196.4 (99.96) mIU/L
Prolactin, change from baseline to Day 14, mean (SD) (prolactin; 5 mg BID): 324.8 (187.12) mIU/L
Prolactin, Day 3, mean (prolactin; 10 mg BID): 570.2 mIU/L
Prolactin, Day 7, mean (prolactin; 10 mg BID): 640.0 mIU/L
Prolactin, Day 10, mean (prolactin; 10 mg BID): 734.9 mIU/L
Prolactin, Day 14, mean (prolactin; 10 mg BID): 774.2 mIU/L
Prolactin, change from baseline to Day 3 (prolactin; 10 mg BID): 351.5 mIU/L
Prolactin, change from baseline to Day 7 (prolactin; 10 mg BID): 421.2 mIU/L
Prolactin, change from baseline to Day 10 (prolactin; 10 mg BID): 512.1 mIU/L
Prolactin, change from baseline to Day 14 (prolactin; 10 mg BID): 555.5 mIU/L
Prolactin, change from baseline to follow-up/early termination (prolactin; 10 mg BID, n = 2): −32.5 mIU/L
Prolactin, follow-up/early termination, mean (prolactin; 10 mg BID, n = 2): 195.0 mIU/L
Prolactin, Day 3, mean (prolactin; 20 mg QD): 830.5 mIU/L
Prolactin, Day 7, mean (prolactin; 20 mg QD): 1219.5 mIU/L
Prolactin, Day 10, mean (prolactin; 20 mg QD): 1264.1 mIU/L
Prolactin, Day 14, mean (prolactin; 20 mg QD): 1251.9 mIU/L
Prolactin, change from baseline to Day 3 (prolactin; 20 mg QD): 522.1 mIU/L
Prolactin, change from baseline to Day 7 (prolactin; 20 mg QD): 911.1 mIU/L
Prolactin, change from baseline to Day 10 (prolactin; 20 mg QD): 955.8 mIU/L
Prolactin, change from baseline to Day 14 (prolactin; 20 mg QD): 943.6 mIU/L
subjects with ≥6% change from baseline in QTcF ([1]; 10 mg BID, Day 14 at 4 hours post-dose): 1 (3.6%) subjects (%)
subjects with ≥6% change from baseline in QTcF ([1]; 10 mg BID, Day 14 at 6 hours post-dose): 1 (4.3%) subjects (%)
subjects with ≥6% change from baseline in QTcF ([1]; 20 mg QD, Day 14 at 4 hours post-dose): 3 (20.0%) subjects (%)
subjects with ≥6% change from baseline in QTcF ([1]; 20 mg QD, Day 14 at 6 hours post-dose): 2 (16.7%) subjects (%)
QTcF of subject meeting alert criteria (never increased above) ([1]; 1 subject, alert at 4 and 6 hours post-dose on Day 14): ≤ 426 ms
QTcF of second subject meeting alert criteria ([1]; Day 7, baseline QTcF average 430 msec): 474 ms
prolongations of the QTcF interval ([1]; all dose groups): no clinically meaningful prolongations
Cmax lower than the same oral dose domperidone [2]: approximately 50%
estimated slope of concentration-QTc relationship, Model B [3]: 0.79 ms per ng/mL
plasma concentration up to which an effect on ΔΔQTcF exceeding 10 ms can be excluded [3]: ~92 ng/mL
treatment effect-specific intercept, Model B [3]: -0.03 ms
GEBT 45 minutes post meal consumption, Day 14, mean [4]: 10.74 kPCD
GEBT 45 minutes post meal consumption, change from baseline to Day 14 [4]: 1.96 kPCD
GEBT 45 minutes post meal consumption, percent change from baseline to Day 14 [4]: 89.31%
GEBT 90 minutes post meal consumption, Day 14, mean [4]: 23.60 kPCD
GEBT 90 minutes post meal consumption, change from baseline to Day 14 [4]: 3.37 kPCD
GEBT 90 minutes post meal consumption, percent change from baseline to Day 14 [4]: 56.73%
GEBT 120 minutes post meal consumption, Day 14, mean [4]: 32.68 kPCD
GEBT 120 minutes post meal consumption, change from baseline to Day 14 [4]: 3.86 kPCD
GEBT 120 minutes post meal consumption, percent change from baseline to Day 14 [4]: 40.17%
GEBT 150 minutes post meal consumption, Day 14, mean [4]: 37.13 kPCD
GEBT 150 minutes post meal consumption, change from baseline to Day 14 [4]: 1.25 kPCD
GEBT 150 minutes post meal consumption, percent change from baseline to Day 14 [4]: 23.46%
GEBT 180 minutes post meal consumption, Day 14, mean [4]: 40.96 kPCD
GEBT 180 minutes post meal consumption, change from baseline to Day 14 [4]: 1.85 kPCD
GEBT 180 minutes post meal consumption, percent change from baseline to Day 14 [4]: 20.31%
GEBT 240 minutes post meal consumption, Day 14, mean [4]: 41.41 kPCD
GEBT 240 minutes post meal consumption, change from baseline to Day 14 [4]: −0.79 kPCD
GEBT 240 minutes post meal consumption, percent change from baseline to Day 14 [4]: 9.46%
